Reference: patent publication US20040023884A1, “Biologically active peptides from functional domains of bactericidal/permeability-increasing protein and uses thereof” (priority 1993, published 2004)
Converted amounts (≈) assume the structure as drawn. Square brackets hold non-standard residues; d marks the D form. Ends that are not written are not given here. Peptide text beside a SMILES is read from it. Phe(4-NH2) = Nc1ccc(C[C@H](N)C(=O)O)cc1; 1Nal = N[C@@H](Cc1cccc2ccccc12)C(=O)O

What was measured:
[1] = test system: rough mutant E. coli J5 bacteria; experiment: Radial diffusion bactericidal assay, E. coli J5; format: cell-based; details: for pmol added to well to achieve a 30 mm^2 bactericidal zone, E. coli J5: radial diffusion, PROBIT analysis, E. coli J5 (rough)
Summary of the method: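 Log-phase bacteria (3 h at 37 °C in tryptic soy broth), washed in 10 mM sodium phosphate pH 7.4, were embedded at 4×10^6 CFU/mL in underlayer agarose. BPI proteolytic fragments (5 or 10 μL) went into 3 mm wells for 3 h at 37 °C, then agarose overlay and overnight 37 °C growth. Clear zones were measured by micrometer.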

[2] = 3H-heparin binding assay (affinity and capacity); details: for Heparin Capacity: heparin bound at saturation; for Kd: read-out: Heparin Affinity
Summary of the method: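 Peptide fragments were bound to PVDF-membrane wells and incubated with 3H-heparin in blocking buffer for 1 h at 4 °C. After washing, bound radioactivity was quantified by liquid scintillation counting, with BSA background subtracted; rBPI23 served as positive control.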

[3] = test system: E. coli 0111:B4 (smooth) bacteria; experiment: Radial diffusion bactericidal assay, E. coli 0111:B4; format: cell-based; details: for pmol added to well to achieve a 30 mm^2 bactericidal zone, E. coli O111:B4: radial diffusion, PROBIT analysis, E. coli O111:B4 (smooth)
Staphylococcus aureus = experiment: Radial diffusion bactericidal assay, Staphylococcus aureus; format: cell-based; details: S. aureus; for pmol added to well to achieve a 30 mm^2 bactericidal zone, S. aureus: radial diffusion, PROBIT analysis
C. albicans = experiment: Radial diffusion fungicidal assay, Candida albicans; format: cell-based; details: radial diffusion
RAW 264.7 cells = experiment: LPS neutralization cellular proliferation assay, RAW 264.7 cells; format: cell-based, mouse
Procedure: In this assay, mouse RAW 264.7 cells (ATCC Accession No. T1B71), maintained in RPMI 1640 media (GIBCO), supplemented with 10 mM HEPES buffer (pH 7.4), 2 mM L-glutamine, penicillin (100U/mL), streptomcin (100 μg/mL), 0.075% sodium bicarbonate, […] 2-mercaptoethanol and 10% fetal bovine serum (Hyclone, Inc., Logan, Utah), were first induced by incubation in the presence of 50U/mL recombinant mouse y-interferon (Genzyme, Cambridge, Mass.) for 24 h prior to assay. Induced cells were then mechanically collected and centrifuged at 500×g at 4° C. and then resuspended in 50 mL RPMI 1640 media (without supplements), re-centrifuged and again resuspended in RPMI 1640 media (without supplements). The cells were counted and their concentration adjusted to 2×10^5 cells/mL and 100 μL aliquots were added to each well of a 96-well microtitre plate. The cells were then incubated for about 15 hours with E. coli O113 LPS (Control Standard. Assoc. of Cape Cod. Woods Hole, Mass.), which was added in 100 μL/well aliquots at a concentration of […] in serum-free RPMI 1640 media (this concentration being the result of titration experiments in which LPS concentration was varied between 50 pg/mL and 100 ng/mL). This incubation was performed in the absence or presence of BPI functional domain peptides in varying concentrations between 25 ng/mL and 50 μg/mL. Recombinant human BPI was used as a positive control at a concentration of 1 μg/mL. Cell proliferation was quantitatively measured by the addition of 1 μCi/well [^3H]-thymidine 5 hours after the time of initiation of the assay. After the 15-hour incubation, labeled cells were harvested onto glass fiber filters with a cell harvester (Inotech Biosystems, EQ-384, Sample Processing and Filter Counting System, Lansing, Mich.).

Candida albicans = format: cell-based

Row | Molecule | fold lower bactericidal activity than BPI.30 ([1]; E. coli J5) | pmol added to well to achieve a 30 mm^2 bactericidal zone, E. coli J5 [1] | fold increase in heparin affinity vs BPI.30 [2] | fold reduction in heparin binding capacity vs BPI.30 [2] | Heparin Capacity [2] | Kd [2] | fold lower bactericidal activity than BPI.30 ([3]; E. coli 0111:B4) | pmol added to well to achieve a 30 mm^2 bactericidal zone, E. coli O111:B4 [3] | fold lower bactericidal activity than BPI.30 (Staphylococcus aureus) | pmol added to well to achieve a 30 mm^2 bactericidal zone, S. aureus (Staphylococcus aureus) | C. albicans: pmol required for 30 mm^2 zone (C. albicans) | EC50 (peptide concentration at which the growth inhibitory effect of LPS was reversed by 50%) (RAW 264.7 cells) | IC50 (peptide concentration at which RAW cell growth was inhibited by 50%) (RAW 264.7 cells) | MIC C. alb (Candida albicans)
1 | KSKVGWLIQLFHKKKWKAQKRFLK [BPI.74] | 10 fold | 731.94 pmol | 2 fold | 2 fold | 207.3 ng | 218 nM | 50 fold | 30,610.36 pmol | 3.5 fold | 4,290.18 pmol | >2148.21 pmol | 2.7 ± 0.3 µg/mL | 18.8 ± 0.8 µg/mL | 
2 | KSKVGWLILLFHKK [BPI.86] |  | 1,519.64 pmol |  |  | 208.4 ng | 383 nM |  | b (no detectable activity up to 5 μg/well) |  | 459,138.55 pmol | >2048.45 pmol | 0.13 ± 0.04 µg/mL |  | 
3 | KSKVGWLIQLFHKF [BPI.96] |  | 378.33 pmol |  |  | 203.8 ng | 469 nM |  | 8,691.85 pmol |  | 91,585.37 pmol | 1856.08 pmol | 1.6 ± 0.2 µg/mL | 18.8 ± 0.8 µg/mL | 
4 | CC[C@H](C)[C@H](NC(=O)[C@H](CC(C)C)NC(=O)[C@H](Cc1ccc(N)cc1)NC(=O)CNC(=O)[C@@H](NC(=O)[C@H](CCCCN)NC(=O)[C@H](CO)NC(=O)[C@@H](N)CCCCN)C(C)C)C(=O)N[C@@H](CCC(N)=O)C(=O)N[C@@H](CC(C)C)C(=O)N[C@@H](Cc1ccccc1)C(=O)N[C@@H](Cc1c[nH]cn1)C(=O)N[C@@H](CCCCN)C(=O)N[C@@H](CCCCN)C(=O)O [BPI.133] (H-KSKVG[Phe(4-NH2)]LIQLFHKK-OH; N-terminus and C-terminus assumed) |  | 2,316.59 pmol |  |  |  |  |  | b (no detectable activity up to 5 μg/well) |  | b (no detectable activity up to 5 μg/well) | 284.39 pmol |  |  | 12.50 µg/mL (≈ 7.4 µM)
5 | KSKVGWLIFLFHKK [BPI.91] |  | 21,014.73 pmol |  |  | 181.2 ng | 288 nM |  | b (no detectable activity up to 5 μg/well) |  | b (no detectable activity up to 5 μg/well) | >3843.54 pmol |  | — (No proliferation decrease up to 50 μg/ml) | 
6 | CC[C@H](C)[C@H](NC(=O)[C@H](CC(C)C)NC(=O)[C@H](Cc1c[nH]c2ccccc12)NC(=O)CNC(=O)[C@@H](NC(=O)[C@H](CCCCN)NC(=O)[C@H](CO)NC(=O)[C@@H](N)CCCCN)C(C)C)C(=O)N[C@@H](CCC(N)=O)C(=O)N[C@@H](Cc1cccc2ccccc12)C(=O)N[C@@H](Cc1ccccc1)C(=O)N[C@@H](Cc1c[nH]cn1)C(=O)N[C@@H](CCCCN)C(=O)N[C@@H](CCCCN)C(=O)O [BPI.143] (H-KSKVGWLIQ[1Nal]FHKK-OH; N-terminus and C-terminus assumed) |  | 12,388.45 pmol |  |  |  |  |  | b (no detectable activity up to 5 μg/well) |  | b (no detectable activity up to 5 μg/well) | >2838.99 pmol |  |  | 25.00 µg/mL (≈ 13.9 µM)
7 | CC[C@H](C)[C@H](N)C(=O)N[C@@H](CCCCN)C(=O)N[C@H](C(=O)N[C@@H](CO)C(=O)NCC(=O)N[C@@H](CCCCN)C(=O)N[C@@H](Cc1cccc2ccccc12)C(=O)N[C@@H](CCCCN)C(=O)N[C@@H](C)C(=O)N[C@@H](CCC(N)=O)C(=O)N[C@@H](Cc1ccccc1)C(=O)N[C@@H](CCCNC(=N)N)C(=O)N[C@@H](Cc1ccccc1)C(=O)N[C@@H](CC(C)C)C(=O)N[C@@H](CCCCN)C(=O)N[C@@H](CCCCN)C(=O)N[C@@H](CO)C(=O)N[C@@H](CCCCN)C(=O)N[C@H](C(=O)NCC(=O)N[C@@H](Cc1c[nH]c2ccccc12)C(=O)N[C@@H](CC(C)C)C(=O)N[C@H](C(=O)N[C@@H](CCC(N)=O)C(=O)N[C@@H](CC(C)C)C(=O)N[C@@H](Cc1ccccc1)C(=O)N[C@@H](Cc1c[nH]cn1)C(=O)N[C@@H](CCCCN)C(=O)N[C@@H](CCCCN)C(=O)O)[C@@H](C)CC)C(C)C)[C@@H](C)CC [BPI.93] (H-IKISGK[1Nal]KAQFRFLKKSKVGWLIQLFHKK-OH) |  | 212.87 pmol |  |  | 291.5 ng | 387 nM |  | 10,118.98 pmol |  | b (no detectable activity up to 5 μg/well) | >980.27 pmol | 0.9 ± 0.25 µg/mL | 9.7 ± 0.1 µg/mL (≈ 2.73 µM) | 
8 | KWKVFKKIEKKSKVGWLIQLFHKK [BPI.149] |  | 44.00 pmol |  |  |  |  |  | 391.00 pmol |  | b (no detectable activity up to 5 μg/well) | >1397.76 pmol |  |  | 12.50 µg/mL
9 | KSKVGYLIQLFHKK [BPI.139] |  | 1,261.37 pmol |  |  |  |  |  | 3,793.91 pmol |  | b (no detectable activity up to 5 μg/well) | 322.96 pmol |  |  | 6.25 µg/mL
10 | KSKVKWLIQLFHKK [BPI.97] |  | 295.58 pmol |  |  | 252.2 ng | 765 nM |  | b (no detectable activity up to 5 μg/well) |  | b (no detectable activity up to 5 μg/well) | 213.22 pmol |  |  | 3.13 µg/mL
11 | KSKVGWLIKLFHKK [BPI.92] |  | 331.80 pmol |  |  | 227.3 ng | 667 nM |  | b (no detectable activity up to 5 μg/well) |  | b (no detectable activity up to 5 μg/well) | 298.72 pmol |  |  | 3.13 µg/mL
12 | CC[C@H](C)[C@H](NC(=O)[C@H](CC(C)C)NC(=O)[C@H](Cc1cccc2ccccc12)NC(=O)CNC(=O)[C@@H](NC(=O)[C@H](CCCCN)NC(=O)[C@H](CO)NC(=O)[C@@H](N)CCCCN)C(C)C)C(=O)N[C@@H](CCC(N)=O)C(=O)N[C@@H](CC(C)C)C(=O)N[C@@H](Cc1ccccc1)C(=O)N[C@@H](Cc1c[nH]cn1)C(=O)N[C@@H](CCCCN)C(=O)N[C@@H](CCCCN)C(=O)O [BPI.83] (H-KSKVG[1Nal]LIQLFHKK-OH) |  | 164.84 pmol |  |  | 253.3 ng | 410 nM |  | 51,147.55 pmol |  | 116,500.54 pmol | 1804.26 pmol | 1.2 ± 0.1 µg/mL |  | 
